Results published in publication PMC10454243, “Anticancer Study of a Novel Pan-HDAC Inhibitor MPT0G236 in Colorectal Cancer Cells” (International Journal of Molecular Sciences, 2023).
Like-named read-outs stand apart in the source and are kept apart here. Values belong to the molecule of their own block, whether it stands above or below them.

Columns and labels:
[1] = test system: HT-29 human colorectal cancer cells; assay: SRB cell proliferation (growth) assay, HT-29; type: cell-based; conditions: read-out: GI50 cell growth
Method: (§1) The impacts of MPT0G236 on cell viability (A,C) and cell growth (B) were evaluated with HCT-116 and HT-29 human colorectal cancer cells, as well as human umbilical vein endothelial cells (HUVECs). The cells were treated with different concentrations of the compound for 48 h. Cell viability was measured using an MTT assay, while cell growth was assessed using an SRB assay. The data are shown as the mean ± SEM on the basis of three independent experiments. […] The basal cells were fixed with 10% (w/v) trichloroacetic acid for 10 min. […] After treatment, the cells were fixed with 10% TCA, stained with SRB at a concentration of 0.4% (w/v), and washed with 1% acetic acid. After drying, the stained cells were lysed with 10 mM Trizma base, and the absorbance was measured at a wavelength of 515 nm.

[2] = test system: HCT-116 human colorectal cancer cells; assay: SRB cell proliferation (growth) assay, HCT-116; type: cell-based; conditions: read-out: GI50 cell growth
Method: as §1

[3] = test system: HT-29 human colorectal cancer cells; assay: MTT cell viability assay, HT-29; type: cell-based; conditions: read-out: IC50 cell viability
[4] = biological target: T1, HDAC9 (Homo sapiens, UniProt Q9UKV0); assay: HDAC enzyme inhibition assay, HDAC9; type: biochemical; conditions: Class IIa; Reaction Biology Corp. assay
T1 construct: purchased Reaction Biology Corp. (contract assay service)
T1 sequence (Q9UKV0 whole entry): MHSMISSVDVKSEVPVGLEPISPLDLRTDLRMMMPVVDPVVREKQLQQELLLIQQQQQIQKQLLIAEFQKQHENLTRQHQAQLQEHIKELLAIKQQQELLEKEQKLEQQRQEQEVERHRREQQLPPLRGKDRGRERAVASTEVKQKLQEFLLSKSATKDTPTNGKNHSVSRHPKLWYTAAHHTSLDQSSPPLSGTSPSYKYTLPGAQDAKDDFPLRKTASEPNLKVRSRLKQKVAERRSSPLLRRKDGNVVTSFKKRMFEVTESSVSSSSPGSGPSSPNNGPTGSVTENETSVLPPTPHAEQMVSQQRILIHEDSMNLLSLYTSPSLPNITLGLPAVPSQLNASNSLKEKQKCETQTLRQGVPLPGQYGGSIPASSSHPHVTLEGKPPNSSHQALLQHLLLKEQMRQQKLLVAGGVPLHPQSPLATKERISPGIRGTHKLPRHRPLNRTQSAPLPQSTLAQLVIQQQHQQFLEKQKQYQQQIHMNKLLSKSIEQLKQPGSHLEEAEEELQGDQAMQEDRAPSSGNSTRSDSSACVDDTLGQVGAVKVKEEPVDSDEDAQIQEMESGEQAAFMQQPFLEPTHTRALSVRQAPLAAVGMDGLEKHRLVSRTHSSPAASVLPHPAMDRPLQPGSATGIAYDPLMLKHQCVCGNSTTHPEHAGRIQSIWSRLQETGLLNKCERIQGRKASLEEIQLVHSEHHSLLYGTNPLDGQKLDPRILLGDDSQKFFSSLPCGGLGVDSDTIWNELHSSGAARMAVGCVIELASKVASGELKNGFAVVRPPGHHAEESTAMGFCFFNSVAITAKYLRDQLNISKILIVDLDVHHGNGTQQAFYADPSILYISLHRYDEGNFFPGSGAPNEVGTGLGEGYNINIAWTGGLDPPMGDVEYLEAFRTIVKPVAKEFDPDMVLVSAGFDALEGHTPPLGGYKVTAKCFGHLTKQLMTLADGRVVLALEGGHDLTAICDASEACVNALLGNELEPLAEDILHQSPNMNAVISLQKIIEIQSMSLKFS
Method: (§2) HDAC activity inhibition assays were performed by Reaction Biology Corp. (Malvern, PA, USA).

[5] = test system: PC-3 cells; set-up: method as in PMID 27344487; conditions: previous study, read-out: GI50 cell proliferation; cited from earlier work
[6] = test system: HDAC6; set-up: method as in PMID 27344487; conditions: Class IIb; cited from earlier work
[7] = test system: A549 cells; set-up: method as in PMID 27344487; conditions: previous study, read-out: GI50 cell proliferation; cited from earlier work
[8] = biological target: T2, HDAC3 (Homo sapiens, UniProt O15379); assay: HDAC enzyme inhibition assay, HDAC3; type: biochemical; conditions: Class I; Reaction Biology Corp. assay
T2 construct: purchased Reaction Biology Corp. (contract assay service)
T2 sequence (O15379 whole entry): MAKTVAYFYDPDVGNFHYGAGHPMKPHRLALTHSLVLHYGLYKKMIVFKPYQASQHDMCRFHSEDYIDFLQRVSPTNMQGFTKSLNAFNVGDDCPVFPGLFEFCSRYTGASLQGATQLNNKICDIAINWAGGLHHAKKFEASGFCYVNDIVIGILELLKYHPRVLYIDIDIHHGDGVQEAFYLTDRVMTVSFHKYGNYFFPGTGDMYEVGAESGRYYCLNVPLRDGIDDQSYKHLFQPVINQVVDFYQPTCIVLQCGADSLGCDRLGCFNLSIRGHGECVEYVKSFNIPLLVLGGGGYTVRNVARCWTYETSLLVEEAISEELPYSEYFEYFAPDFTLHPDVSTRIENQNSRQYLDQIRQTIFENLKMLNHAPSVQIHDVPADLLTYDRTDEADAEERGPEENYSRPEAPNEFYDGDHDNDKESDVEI
T2 sequence (Q9Y618 395-489 partner limits assumed): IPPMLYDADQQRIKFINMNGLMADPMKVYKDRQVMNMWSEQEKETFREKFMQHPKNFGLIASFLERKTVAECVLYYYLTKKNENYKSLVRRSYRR
Method: as §2

[9] = test system: HCT-116 tumor; set-up: method as in PMID 27344487; conditions: cited from earlier work
[10] = test system: human umbilical vein endothelial cells (HUVECs); assay: MTT cell viability assay, HUVEC; type: cell-based
[11] = test system: HCT-116 human colorectal cancer cells; assay: MTT cell viability assay, HCT-116; type: cell-based; conditions: 48 h
[12] = biological target: T3, HDAC7 (Homo sapiens, UniProt Q8WUI4); assay: HDAC enzyme inhibition assay, HDAC7; type: biochemical; conditions: Class IIa; Reaction Biology Corp. assay
T3 construct: purchased Reaction Biology Corp. (contract assay service)
T3 sequence (Q8WUI4 1-952): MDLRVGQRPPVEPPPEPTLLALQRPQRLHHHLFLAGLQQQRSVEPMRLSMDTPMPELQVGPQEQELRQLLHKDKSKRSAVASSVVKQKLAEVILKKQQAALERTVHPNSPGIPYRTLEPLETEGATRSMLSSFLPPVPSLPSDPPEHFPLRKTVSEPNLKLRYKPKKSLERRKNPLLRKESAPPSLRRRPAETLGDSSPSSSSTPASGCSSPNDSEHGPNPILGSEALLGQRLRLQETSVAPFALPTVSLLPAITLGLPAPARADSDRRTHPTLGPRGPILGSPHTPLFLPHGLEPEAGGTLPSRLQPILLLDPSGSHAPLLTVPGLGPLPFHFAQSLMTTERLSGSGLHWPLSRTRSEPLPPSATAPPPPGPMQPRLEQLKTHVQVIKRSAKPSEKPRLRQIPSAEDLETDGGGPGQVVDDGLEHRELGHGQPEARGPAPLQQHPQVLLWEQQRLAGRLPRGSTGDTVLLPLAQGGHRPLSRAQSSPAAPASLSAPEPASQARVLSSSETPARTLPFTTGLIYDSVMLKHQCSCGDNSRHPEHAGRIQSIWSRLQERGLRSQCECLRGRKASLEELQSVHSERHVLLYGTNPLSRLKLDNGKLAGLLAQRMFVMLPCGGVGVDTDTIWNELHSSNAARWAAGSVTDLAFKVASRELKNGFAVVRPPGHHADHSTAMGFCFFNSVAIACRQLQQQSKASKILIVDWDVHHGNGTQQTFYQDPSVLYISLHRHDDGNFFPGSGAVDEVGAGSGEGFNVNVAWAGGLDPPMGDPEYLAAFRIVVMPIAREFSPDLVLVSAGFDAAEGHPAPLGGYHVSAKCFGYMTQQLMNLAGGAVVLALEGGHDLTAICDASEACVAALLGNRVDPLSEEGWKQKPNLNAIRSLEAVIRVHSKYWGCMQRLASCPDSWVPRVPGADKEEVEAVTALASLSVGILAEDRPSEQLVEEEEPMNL
Method: as §2

[13] = test system: acetyl-α-tubulin and acetyl-histone H3 in HT-29 cells; assay: Western blot of acetyl-α-tubulin and acetyl-histone H3, HT-29; type: cell-based, human; conditions: 24 h
Method: (§3) Figure 2 MPT0G236 induced acetylation of α-tubulin and histone H3 in human colorectal cells. (A) The structure of MPT0G236. […] Protein expression was quantified by using the computerized image analysis application in ImageJ software V1.53k. The data are shown as the mean ± SEM on the basis of at least three independent experiments. * p < 0.05, ** p < 0.01, *** p < 0.001 and **** p < 0.0001 compared with the control group.
(§4) Cells were washed with PBS and incubated with lysis buffer (20 mM HEPES, pH 7.4; 2 mM EGTA; 0.1% Triton X-100; 50 mM β-glycerophosphate; 1 mM DTT; 10% glycerol; 1 μg/mL leupeptin; 1 mM sodium orthovanadate; 1 mM phenylmethylsulfonyl fluoride; 5 μg/mL aprotinin) for 10 min at 4 °C. The cells were then scraped off and incubated on ice for an additional 10 min before being centrifuged at 17,000× g for 30 min at 4 °C. The total protein […] was determined, and equal amounts of proteins were separated by […] on sodium dodecyl sulfate polyacrylamide gels (SDS-PAGE) and transferred onto a nitrocellulose membrane. […] Signals were detected with chemiluminescence reagents (GE Healthcare Corp., Buckinghamshire, UK), and the membranes were scanned using a ChemiDocTM MP Imaging System. Protein levels in the Western blots were then quantified using ImageJ software V1.53k.

[14] = test system: HDAC8; conditions: Class I; cited from earlier work
[15] = test system: HCT-116 cells; set-up: method as in PMID 27344487; conditions: previous study, read-out: GI50 cell proliferation; cited from earlier work
[16] = biological target: T4, HDAC4 (Homo sapiens, UniProt P56524); assay: HDAC enzyme inhibition assay, HDAC4; type: biochemical; conditions: Class IIa; Reaction Biology Corp. assay
T4 construct: purchased Reaction Biology Corp. (contract assay service)
T4 sequence (P56524 whole entry): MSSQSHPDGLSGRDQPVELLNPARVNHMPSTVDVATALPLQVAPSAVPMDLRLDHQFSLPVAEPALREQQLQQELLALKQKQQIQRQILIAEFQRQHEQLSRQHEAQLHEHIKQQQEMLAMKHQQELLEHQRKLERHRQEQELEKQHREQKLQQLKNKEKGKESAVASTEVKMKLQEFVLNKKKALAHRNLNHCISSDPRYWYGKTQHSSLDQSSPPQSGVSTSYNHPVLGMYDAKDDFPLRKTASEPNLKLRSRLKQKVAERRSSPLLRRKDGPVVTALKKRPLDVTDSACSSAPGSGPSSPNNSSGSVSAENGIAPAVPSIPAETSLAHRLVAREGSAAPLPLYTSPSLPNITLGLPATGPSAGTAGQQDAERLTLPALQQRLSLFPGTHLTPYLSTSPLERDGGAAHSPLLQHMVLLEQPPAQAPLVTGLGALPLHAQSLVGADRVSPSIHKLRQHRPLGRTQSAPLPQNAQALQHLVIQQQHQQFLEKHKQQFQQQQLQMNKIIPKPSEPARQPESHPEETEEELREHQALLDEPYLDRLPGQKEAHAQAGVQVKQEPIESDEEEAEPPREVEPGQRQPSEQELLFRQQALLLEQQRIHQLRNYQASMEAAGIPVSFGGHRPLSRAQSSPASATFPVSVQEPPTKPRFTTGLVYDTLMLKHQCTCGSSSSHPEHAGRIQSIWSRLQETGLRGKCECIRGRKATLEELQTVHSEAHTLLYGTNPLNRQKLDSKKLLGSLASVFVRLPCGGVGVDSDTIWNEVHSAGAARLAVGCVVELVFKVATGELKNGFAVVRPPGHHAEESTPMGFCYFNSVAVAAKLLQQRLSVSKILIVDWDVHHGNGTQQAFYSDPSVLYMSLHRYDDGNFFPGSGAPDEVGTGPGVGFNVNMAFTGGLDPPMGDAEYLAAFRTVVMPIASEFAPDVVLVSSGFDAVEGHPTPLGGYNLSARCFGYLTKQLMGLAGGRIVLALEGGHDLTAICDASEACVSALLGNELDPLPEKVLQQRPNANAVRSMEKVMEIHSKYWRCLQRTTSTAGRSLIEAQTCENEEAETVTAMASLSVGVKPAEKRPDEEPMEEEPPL
Method: as §2

[17] = test system: acetyl-α-tubulin and acetyl-histone H3 in HCT-116 cells; assay: Western blot of acetyl-α-tubulin and acetyl-histone H3, HCT-116; type: cell-based, human; conditions: 24 h
Method: as §3, §4

[18] = test system: HDAC2; set-up: method as in PMID 27344487; conditions: Class I; cited from earlier work
[19] = test system: HDAC1; set-up: method as in PMID 27344487; conditions: Class I; cited from earlier work
[20] = biological target: T5, HDAC5 (Homo sapiens, UniProt Q9UQL6); assay: HDAC enzyme inhibition assay, HDAC5; type: biochemical; conditions: Class IIa; Reaction Biology Corp. assay
T5 construct: purchased Reaction Biology Corp. (contract assay service)
T5 sequence (Q9UQL6 whole entry): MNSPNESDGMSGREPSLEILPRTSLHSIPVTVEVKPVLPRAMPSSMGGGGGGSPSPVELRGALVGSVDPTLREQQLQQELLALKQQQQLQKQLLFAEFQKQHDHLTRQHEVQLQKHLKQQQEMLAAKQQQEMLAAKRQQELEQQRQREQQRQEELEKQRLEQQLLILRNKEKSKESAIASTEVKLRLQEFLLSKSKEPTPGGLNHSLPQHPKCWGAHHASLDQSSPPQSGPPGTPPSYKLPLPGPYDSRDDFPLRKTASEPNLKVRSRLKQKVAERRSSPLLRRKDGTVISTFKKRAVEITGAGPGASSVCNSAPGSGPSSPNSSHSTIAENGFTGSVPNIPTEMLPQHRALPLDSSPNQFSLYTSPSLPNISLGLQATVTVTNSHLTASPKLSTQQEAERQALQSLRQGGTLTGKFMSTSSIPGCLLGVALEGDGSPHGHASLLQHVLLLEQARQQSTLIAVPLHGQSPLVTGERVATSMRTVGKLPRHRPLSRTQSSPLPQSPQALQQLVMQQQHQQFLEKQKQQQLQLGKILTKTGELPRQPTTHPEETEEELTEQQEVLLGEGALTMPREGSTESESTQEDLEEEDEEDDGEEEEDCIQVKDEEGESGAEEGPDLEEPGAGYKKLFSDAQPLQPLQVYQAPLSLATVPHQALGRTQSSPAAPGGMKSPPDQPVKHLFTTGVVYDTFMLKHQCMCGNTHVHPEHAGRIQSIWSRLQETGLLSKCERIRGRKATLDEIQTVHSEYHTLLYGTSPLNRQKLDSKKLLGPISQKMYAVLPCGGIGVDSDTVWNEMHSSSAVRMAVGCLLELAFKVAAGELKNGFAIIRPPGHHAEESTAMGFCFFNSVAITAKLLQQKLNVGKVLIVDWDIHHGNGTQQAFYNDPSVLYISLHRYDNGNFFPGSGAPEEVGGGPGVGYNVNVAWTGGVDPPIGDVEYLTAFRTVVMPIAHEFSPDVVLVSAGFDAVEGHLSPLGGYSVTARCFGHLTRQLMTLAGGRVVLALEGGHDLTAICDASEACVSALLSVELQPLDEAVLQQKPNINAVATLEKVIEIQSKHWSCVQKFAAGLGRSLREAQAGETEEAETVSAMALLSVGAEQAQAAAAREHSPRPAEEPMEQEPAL
Method: as §2

[21] = set-up: method as in PMID 27344487; conditions: in vivo HCT-116 tumor study; cited from earlier work

Structure (SMILES): O=C(CCCCCCC(=O)Nc1ccccc1)NO [SAHA, Suberoylanilide hydroxamic acid, reference compound]
GI50 ([1]; HT-29, 48 h): 470 nM
GI50 ([2]; HCT-116, 48 h): 630 nM
IC50 ([3]; HT-29, 48 h): 2310 nM

IC50 [4]: 12600 nM
IC50 [8]: 70 nM
GI50 ([1]; HT-29, SRB, 48 h): 310 nM
GI50 ([2]; HCT-116, SRB, 48 h): 100 nM
IC50 [11]: 350 nM
IC50 [12]: 12300 nM
IC50 [16]: 19700 nM
IC50 ([3]; HT-29, MTT, 48 h): 880 nM
IC50 [20]: 15500 nM
Structure (SMILES): O=C(/C=C/c1cccc(S(=O)(=O)c2ccc3ccccc3n2)c1)NO [MPT0G236]
GI50 [5]: 150 ± 10 nM
IC50 [6]: 15 nM
GI50 [7]: 270 ± 20 nM
HCT-116 tumor growth suppression ([9]; oral administration of 50 mg/kg): 32.2%
HCT-116 tumor growth suppression ([9]; oral administration of 100 mg/kg): 58.8%
normal cells (HUVEC) less sensitive than colorectal cancer cells ([10]; HUVEC IC50 versus HCT-116 and HT-29 IC50): more than 10 fold
IC50 ([10]; Homo sapiens, HUVEC, 48 h): 15100 nM
concentration that significantly elevated acetyl-α-tubulin [13]: 3 µM
concentration that significantly elevated histone acetylation [13]: 1 µM
IC50 [14]: 130 nM
GI50 [15]: 80 ± 1 nM
concentration that significantly increased accumulation of acetyl-α-tubulin [17]: 0.3 µM
concentration that significantly increased histone acetylation [17]: 1 µM
IC50 [18]: 11.5 nM
IC50 [19]: 14 nM
effect on body weight [21]: without affecting body weight
